The text below walks through data of patent US20160279236A1, “USE OF RAPAMYCIN AS VACCINE ADJUVANT AND PREPARATION METHOD THEREFOR” (INSTITUT PASTEUR OF SHANGHAI, CHINESE ACADEMY OF SCIENCES, priority 2013, published 2016).

For test [1], the system named is OVA-specific T cell responses and antibody responses. The experiment in a line: Ovalbumin immunization of mice with adjuvants: OVA-specific T cell and antibody responses. In kind it is in vivo. How it is done: 6-8 weeks aged mice were primarily immunized by the inventors using intraperitoneal injection method, wherein Ovalbumin (10 μg/mouse) was used as antigen and PBS (negative control), MPL (10 μg/mouse, positive control), rapamycin (100 μg/mouse), rapamycin (100 μg/mouse)+MPL (10 μg/mouse) as adjuvant respectively, and were immunized again with ovalbumin (10 μg/mouse, without adjuvant) at 3 weeks. […] After 48 hours, enzyme linked immunosorbent assay (ELISA) was used to determine the content of IFNγ in the supernatant.

In test [2] the test system is melanoma murine cell line B16 OVA. The experiment in a line: Tumor growth of B16 OVA melanoma in mice immunized with ovalbumin plus adjuvants. Type of test: in vivo. Particulars: ovalbumin 10 μg/mouse i.p. prime and boost; polyI:C 50 μg, rapamycin 100 μg, MPL 10 μg per mouse; B16 OVA 1×10^6 cells s.c. 4 weeks after secondary immunization.
Method: By intraperitoneal injecting, 6-8 weeks aged mice were immunized using ovalbumin (10 μg/mouse) as antigen and PBS (200 μl, negative control), polyI:C (Invivogen) (50 μg/mouse), rapamycin (100 μg/mouse), MPL (10 μg/mouse), MPL (10 μg/mouse)+rapamycin (100 μg/mouse), polyI:C (50 μg/mouse)+rapamycin (100 μg/mouse) used as adjuvant to conduct primary immunization. After two weeks, the mice were boosted by the same program. 4 weeks after the secondary immunization, melanoma murine cell line B16 OVA expressing OVA was subcutaneous implanted into mice (1×10^6 cells/mouse), and the tumor growth was measured.
[3] abbreviates: blood 1 week after secondary immunization, single adjuvants vs negative control, combination vs MPL alone.

On to monophosphoryl lipid A [MPL], for which, in test [1] (setting [3]), the “OVA-specific IgG1 antibody titers” value is “significantly increase”, the “OVA-specific IgG2b antibody titers” value is recorded as “significantly increase” and the “OVA-specific IgG2c antibody titers” value was “significantly increase”. Further, the “OVA-specific CD8+ T cell responses” value in test [1] (mice i.p., ovalbumin 10 μg, MPL 10 μg, rapamycin 100 μg per mouse, IFNγ ELISA of splenic cells stimulated with OVA-1, 48 hours) was “significantly increase”. The “OVA-specific CD4+ (Th1) T cell responses” value in test [1] (mice i.p., ovalbumin 10 μg, MPL 10 μg, rapamycin 100 μg per mouse, IFNγ ELISA of splenic cells stimulated with OVA-II, 48 hours) is given as “significantly increase”.

With polyI:C, the tumor growth result in test [2] was “grew slowly and was of relatively small volume”.
